From patent publication EP0468634A1, “The use of macrocyclic aminophosphonic acid complexes as imaging agents” (THE DOW CHEMICAL COMPANY, priority 1990, dated 1992)
Blank lines part the entries; values can stand above or below the compound they belong to.

Legend:
[1] = Determination of water proton T1 relaxation time (inversion recovery NMR, 270 MHz); format: physicochemical; conditions: deoxygenated, Example 1 complex at 680 µMolar in 20% D₂O (vol/vol)
Experimental: The complex from Example 1 was deoxygenated by bubbling dry nitrogen gas through it for 20 min. The sample was then placed in a 5 mm NMR tube and placed in a 270 MHz spectrometer for determination of the water proton relaxation time.
The NMR experiment used to measure the relaxation time was the standard inversion recovery technique for measuring spin-lattice (T₁) relaxation times. In this technique the intensity of the water proton NMR resonance is measured as a function of a variable delay time between radiofrequency pulses during which the spin system relaxes toward equilibrium. The final data, which consisted of peak intensities versus delay time, was plotted and fitted to an exponential function. The characteristic time for spin magnetization to reestablish itself (T₁) is obtained from the time constant of the fitted exponential function. The value for T₁ for the complex of Example 1 was 244 mS. This compares favorably to a value of 422 mS for a Gd-DTPA, and 540 mS for Gd-DOTA when the experiment was repeated using these complexes. (The Gd-DTPA and Gd-DOTA are known commercial MRI agents.)

[2] = Biodistribution of Gd-DOTMP complex in a rat: Gd in femur by inductively coupled plasma spectroscopy; format: in vivo, Sprague Dawley rat
Experimental: A 150 g Sprague Dawley rat was injected with 6-100 µL portions of the Gd-DOTMP, prepared in Example 4, over a 4 day period. This rat was then sacrificed and one of its femur bones was removed and found to weigh 0.690 g. This bone was dissolved in 5 mL of concentrated HCl and analyzed for Gd by inductively coupled plasma spectroscopy. The amount of Gd found in the femur bone was 16.76 µg, which corresponds to 419 µg in the total rat skeleton, assuming the femur is 1/25th of the total skeleton. This corresponds to 25.5% of the injected dose going to the bone. That result compares favorably with similar work done with radioactive tracer ¹⁵³Sm where at these high levels of injected doses about 25-30% of the injected dose localizes in the bone. Thus the behavior of Sm-DOTMP and Gd-DOTMP are very similar in vivo.

[3] = Quantitative biodistribution of 159Gd tracer formulation in rat (NaI scintillation counting of tissues); format: in vivo, Sprague Dawley rat; conditions: 100 µL via tail vein, 2 hours after injection, ligand to metal molar ratio 1.5, 0.32 mg/mL
Description: Quantitative biodistributions were obtained by injecting 50-100 microliters of the composition into the rail vein of unanesthetized male Sprague Dawley rats. The rats were then placed in cages lined with absorbent paper in order to collect all urine excreted prior to sacrifice. After a given period of time, the rats were sacrificed by cervical dislocation and the various tissues dissected. The samples were then rinsed with saline, blotted dry on absorbent paper and weighed. The radioactivity in the samples was measured with a NaI scintillation counter.
A 1.45 mg sample of DOTMP, prepared by the procedure of Example B, was placed in a vial and dissolved in 760 µL of water and 5 µL of 50% (wt/wt) of NaOH. A volume of 1000 µL of Gd solution (0.3 mM Gd in O.1N HCl), which contained tracer quantities of ¹⁵⁹Gd, was placed in a separate vial and 15 µL of the DOTMP solution was added. The pH of the solution was adjusted to 7 to 8 using NaOH. The amount of Gd as a complex was determined to be > 99% by cation exchange chromatography. This formulation has a ligand to metal molar ratio of 1.5.
A Sprague Dawley rat was injected with the above prepared formulation and the biodistribution determined. The rat was allowed to acclimate for five days then injected with 100 µL of the Gd solution described above via a tail vein. The rat weighed between 150 and 200 g at the time of injection. After 2 hours the rat was killed by cervical dislocation. Tissues were taken, weighed and the amount of radioactivity in each tissue was determined by counting in a NaI scintillation counter coupled to a multichannel analyzer. The counts in each tissue were compared to the counts in 100 µL standards in order to determine the percentage of the injected dose in each tissue or organ. The ligand (DOTMP) to metal (Gd) molar ratio = 1.5.

Compound: O=C([O-])CN(CCN(CC(=O)[O-])CC(=O)O)CCN(CC(=O)[O-])CC(=O)O.[Gd+3] [Gd-DTPA]
- T₁ (spin-lattice relaxation time of water protons) [1]: 422 mS

Compound: Gd-DOTMP [Example 1]
- T₁ (spin-lattice relaxation time of water protons) [1]: 244 mS
- amount of Gd found in the femur bone ([2]; 150 g rat, 6-100 µL portions over a 4 day period, femur 0.690 g, ICP): 16.76 µg
- % of the injected dose going to the bone ([2]; 150 g rat, 6-100 µL portions over a 4 day period, from femur Gd): 25.5%
- Gd in the total rat skeleton ([2]; assuming the femur is 1/25th of the total skeleton): 419 µg

- T₁ (spin-lattice relaxation time of water protons) [1]: 540 mS
Compound: O=C([O-])CN1CCN(CC(=O)[O-])CCN(CC(=O)O)CCN(CC(=O)[O-])CC1.[Gd+3] [Gd-DOTA]

Compound: ¹⁵⁹Gd-DOTMP [Ho-DOTMP]
- % OF INJECTED DOSE (159Gd) in Blood [3]: 0.08%
- % OF INJECTED DOSE (159Gd) in Bone [3]: 50%
- % OF INJECTED DOSE (159Gd) in Kidney [3]: 0.25%
- % OF INJECTED DOSE (159Gd) in Liver [3]: 0.08%
